Test results: US7691584B2, “Screening of compounds for OCT3 transporter activity” (XenoPort, Inc., priority 2005, dated 2010)
Each block holds one molecule with its values, some of them ahead of it.

What was measured:
[1] = molecular target: T1, hOCT3 (Homo sapiens, UniProt O75751); assay: hOCT3 direct uptake assay (LC-MS-MS, CHO-TREx-hOCT3 cells); settings: specific uptake (induced minus non-induced)
[2] = molecular target: T1, hOCT3; assay: hOCT3 competition uptake assay (3H-MPP uptake into CHO-TREx-hOCT3 cells)
[3] = molecular target: T2, PgP (Homo sapiens, UniProt P08183); assay: Transwell monolayer efflux assay, MDCK cells with TREx-PgP; type: cell-based; settings: 2.5 nM 3H-vinblastine, in the presence of 250 μM verapamil
T2 construct: expressed in transfected cells; host or cells: MDCK cells transfected with tetracycline-inducible TREx-PgP
T2 sequence (P08183 whole entry): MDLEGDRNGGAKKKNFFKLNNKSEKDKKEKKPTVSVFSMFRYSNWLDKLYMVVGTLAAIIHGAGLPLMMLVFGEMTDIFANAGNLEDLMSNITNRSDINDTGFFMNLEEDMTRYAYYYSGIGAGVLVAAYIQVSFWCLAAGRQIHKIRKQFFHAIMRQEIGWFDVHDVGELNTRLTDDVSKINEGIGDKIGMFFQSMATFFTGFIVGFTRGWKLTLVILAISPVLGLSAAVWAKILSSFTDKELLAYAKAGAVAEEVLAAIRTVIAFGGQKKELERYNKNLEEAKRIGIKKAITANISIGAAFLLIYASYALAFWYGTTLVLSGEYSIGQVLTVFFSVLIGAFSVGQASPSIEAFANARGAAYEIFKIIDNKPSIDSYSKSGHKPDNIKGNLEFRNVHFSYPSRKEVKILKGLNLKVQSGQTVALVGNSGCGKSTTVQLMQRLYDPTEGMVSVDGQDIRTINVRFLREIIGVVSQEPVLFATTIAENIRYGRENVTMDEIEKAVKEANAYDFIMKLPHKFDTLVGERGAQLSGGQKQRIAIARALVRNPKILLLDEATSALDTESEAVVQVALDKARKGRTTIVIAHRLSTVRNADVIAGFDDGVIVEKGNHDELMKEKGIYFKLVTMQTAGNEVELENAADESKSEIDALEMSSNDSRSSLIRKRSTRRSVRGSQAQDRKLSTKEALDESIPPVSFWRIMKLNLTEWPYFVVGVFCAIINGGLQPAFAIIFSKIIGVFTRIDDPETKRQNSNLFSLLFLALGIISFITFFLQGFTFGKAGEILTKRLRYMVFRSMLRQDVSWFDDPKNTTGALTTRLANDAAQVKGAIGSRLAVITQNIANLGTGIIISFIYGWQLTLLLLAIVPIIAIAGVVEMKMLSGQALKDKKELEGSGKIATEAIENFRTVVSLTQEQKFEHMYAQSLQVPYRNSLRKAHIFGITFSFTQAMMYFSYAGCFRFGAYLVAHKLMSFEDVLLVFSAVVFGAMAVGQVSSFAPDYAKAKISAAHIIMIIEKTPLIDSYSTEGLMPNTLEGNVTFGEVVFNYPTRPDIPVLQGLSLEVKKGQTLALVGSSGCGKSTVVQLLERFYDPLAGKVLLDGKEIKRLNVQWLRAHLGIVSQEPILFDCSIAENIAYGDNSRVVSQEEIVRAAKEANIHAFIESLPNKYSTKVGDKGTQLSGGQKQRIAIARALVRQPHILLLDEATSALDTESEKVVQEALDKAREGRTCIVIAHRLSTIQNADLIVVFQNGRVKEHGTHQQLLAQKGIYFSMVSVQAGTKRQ
Description: Transwell monolayer efflux assays can be performed by transfecting MDCK cells with the tetracycline-inducible TREx-PgP expression vector. The cells optionally can be transfected with a nucleic acid encoding the transporter of interest. The transfected cells are seeded on polycarbonate filter membranes in transwell dishes and grown for 3-5 days, yielding a polarized monolayer with tight junctions between cells.

[4] = substrate: NCCc1c[nH]cn1; assay: cells, lysate or membranes; settings: other: CHO-TREx-hOCT3 cells, specific uptake (induced minus non-induced)

Direct Uptake Vmax [1]: 4.6 pmol/min/well
IC50 [2]: 150 µM
uptake of labeled MPP with increasing concentration of unlabeled competitor ([2]; cells induced to express OCT3, FIG. 2): decreased
Molecule: NCCc1c[nH]cn1 [Histamine, histamine]

apical to basolateral transport [3]: strongly increased
basolateral to apical transport [3]: strongly decreased
Molecule: CC[C@]1(O)C[C@@H]2CN(CCc3c([nH]c4ccccc34)[C@@](C(=O)OC)(c3cc4c(cc3OC)N(C)[C@H]3[C@@](O)(C(=O)OC)[C@H](OC(C)=O)[C@]5(CC)C=CCN6CC[C@]43[C@@H]65)C2)C1 [^3H-vinblastine, vinblastine]

B1: hOCT3 (Homo sapiens) (protein)
chain: MPSFDEALQRVGEFGRFQRRVFLLLCLTGVTFAFLFVGVVFLGTQPDHYWCRGPSAAALAERCGWSPEEEWNRTAPASRGPEPPERRGRCQRYLLEAANDSASATSALSCADPLAAFPNRSAPLVPCRGGWRYAQAHSTIVSEFDLVCVNAWMLDLTQAILNLGFLTGAFTLGYAADRYGRIVIYLLSCLGVGVTGVVVAFAPNFPVFVIFRFLQGVFGKGTWMTCYVIVTEIVGSKQRRIVGIVIQMFFTLGIIILPGIAYFIPNWQGIQLAITLPSFLFLLYYWVVPESPRWLITRKKGDKALQILRRIAKCNGKYLSSNYSEITVTDEEVSNPSFLDLVRTPQMRKCTLILMFAWFTSAVVYQGLVMRLGIIGGNLYIDFFISGVVELPGALLILLTIERLGRRLPFAASNIVAGVACLVTAFLPEGIAWLRTTVATLGRLGITMAFEIVYLVNSELYPTTLRNFGVSLCSGLCDFGGIIAPFLLFRLAAVWLELPLIIFGILASICGGLVMLLPETKGIALPETVDDVEKLGSPHSCKCGRNKKTPVSRSHL
Km [4]: 110 µM
